Test results taken from the supplement of paper PMC13207355.

What was measured:
Details in all cases: exposure time: 72 h
FT3469 [1] = normal neural stem cell line; assay: surviving fraction (nuclei count normalised to DMSO); higher = more cells surviving (less toxic)
E57 [2] = patient-derived glioblastoma stem cells of mesenchymal subtype; assay: as above
E31 [3] = patient-derived glioblastoma stem cells of proneural subtype; assay: as above
E34 [4] = patient-derived glioblastoma stem cells of proneural subtype; assay: as above
E28 [5] = patient-derived glioblastoma stem cells of classical subtype; assay: as above
E21 [6] = patient-derived glioblastoma stem cells of mesenchymal subtype; assay: as above
E13 [7] = patient-derived glioblastoma stem cells of classical subtype; assay: as above
FT3469 [8] = assay: phenotypic distance (Euclidean, principal components) from DMSO controls (arbitrary units); higher = stronger morphological change
E57 [9] = assay: as above
E31 [10] = assay: as above
E34 [11] = assay: as above
E28 [12] = assay: as above
E21 [13] = assay: as above
E13 [14] = assay: as above
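Wherever phenotypic distance (Euclidean, principal components) from DMSO controls is given: cell Painting imaging in 384-well plates, CellProfiler features reduced to at least 20 principal components, Euclidean distance versus same-plate DMSO vehicle wells (0.1% v/v), median over six images per well.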
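Wherever surviving fraction (nuclei count normalised to DMSO) is given: nuclei counted by high-content imaging of Hoechst-stained cells in laminin-coated 384-well plates, relative to 0.1% DMSO vehicle wells, with staurosporine as cell-death control.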

CC(C)C[C@H](NC(=O)[C@H](CCc1ccccc1)NC(=O)CN1CCOCC1)C(=O)N[C@@H](Cc1ccccc1)C(=O)N[C@@H](CC(C)C)C(=O)[C@@]1(C)CO1 [Carfilzomib]
Details | phenotypic distance | surviving fraction
E13 [7], 4.1 nM | – | 0.0693
E13 [7], 12.3 nM | – | 0.000925
E13 [7], 37 nM | – | 0.00185
E13 [7], 111.1 nM | – | 0.0037
E13 [7], 333.3 nM | – | 0.00277
E13 [7], 1000 nM | – | 0
E13 [7], 3000 nM | – | 0
E13 [14], 4.1 nM | 7.83 | –
E13 [14], 12.3 nM | 12.9 | –
E13 [14], 37 nM | 15.6 | –
E13 [14], 111.1 nM | 16.7 | –
E13 [14], 333.3 nM | 13.2 | –
E13 [14], 1000 nM | 18.4 | –
E13 [14], 3000 nM | 20.8 | –
E21 [6], 4.1 nM | – | 0.281
E21 [6], 12.3 nM | – | 0.00694
E21 [6], 37 nM | – | 0.00198
E21 [6], 111.1 nM | – | 0.000991
E21 [6], 333.3 nM | – | 0
E21 [6], 1000 nM | – | 0.00297
E21 [6], 3000 nM | – | 0.000991
E21 [13], 4.1 nM | 6.32 | –
E21 [13], 12.3 nM | 12.1 | –
E21 [13], 37 nM | 18.5 | –
E21 [13], 111.1 nM | 17.9 | –
E21 [13], 333.3 nM | 24 | –
E21 [13], 1000 nM | 18.7 | –
E21 [13], 3000 nM | 17.1 | –
E28 [5], 4.1 nM | – | 0.177
E28 [5], 12.3 nM | – | 0.0576
E28 [5], 37 nM | – | 0.0811
E28 [5], 111.1 nM | – | 0.0683
E28 [5], 333.3 nM | – | 0.109
E28 [5], 1000 nM | – | 0.0768
E28 [5], 3000 nM | – | 0.16
E28 [12], 4.1 nM | 3.34 | –
E28 [12], 12.3 nM | 5.12 | –
E28 [12], 37 nM | 6.26 | –
E28 [12], 111.1 nM | 5.31 | –
E28 [12], 333.3 nM | 5.36 | –
E28 [12], 1000 nM | 5.52 | –
E28 [12], 3000 nM | 5.18 | –
E31 [3], 4.1 nM | – | 0.0683
E31 [3], 12.3 nM | – | 0.00163
E31 [3], 37 nM | – | 0.00651
E31 [3], 111.1 nM | – | 0.00163
E31 [3], 333.3 nM | – | 0.00814
E31 [3], 1000 nM | – | 0.013
E31 [3], 3000 nM | – | 0.0195
E31 [10], 4.1 nM | 8.54 | –
E31 [10], 12.3 nM | 12.7 | –
E31 [10], 37 nM | 11.3 | –
E31 [10], 111.1 nM | 12.1 | –
E31 [10], 333.3 nM | 9.53 | –
E31 [10], 1000 nM | 9.35 | –
E31 [10], 3000 nM | 8.45 | –
E34 [4], 4.1 nM | – | 0.262
E34 [4], 12.3 nM | – | 0.0542
E34 [4], 37 nM | – | 0.035
E34 [4], 111.1 nM | – | 0.0297
E34 [4], 333.3 nM | – | 0.042
E34 [4], 1000 nM | – | 0.035
E34 [4], 3000 nM | – | 0.0455
E34 [11], 4.1 nM | 5.47 | –
E34 [11], 12.3 nM | 11.7 | –
E34 [11], 37 nM | 12.5 | –
E34 [11], 111.1 nM | 13.8 | –
E34 [11], 333.3 nM | 15.8 | –
E34 [11], 1000 nM | 14.1 | –
E34 [11], 3000 nM | 14.9 | –
E57 [2], 4.1 nM | – | 0.0418
E57 [2], 12.3 nM | – | 0.00509
E57 [2], 37 nM | – | 0.00509
E57 [2], 111.1 nM | – | 0.00305
E57 [2], 333.3 nM | – | 0.00509
E57 [2], 1000 nM | – | 0.00407
E57 [2], 3000 nM | – | 0.00458
E57 [9], 4.1 nM | 12.2 | –
E57 [9], 12.3 nM | 12.4 | –
E57 [9], 37 nM | 11.4 | –
E57 [9], 111.1 nM | 12.8 | –
E57 [9], 333.3 nM | 8.61 | –
E57 [9], 1000 nM | 14.1 | –
E57 [9], 3000 nM | 13.2 | –
FT3469 [1], 4.1 nM | – | 0.224
FT3469 [1], 12.3 nM | – | 0.158
FT3469 [1], 37 nM | – | 0.124
FT3469 [1], 111.1 nM | – | 0.095
FT3469 [1], 333.3 nM | – | 0.0806
FT3469 [1], 1000 nM | – | 0.112
FT3469 [1], 3000 nM | – | 0.0863
FT3469 [8], 4.1 nM | 5.32 | –
FT3469 [8], 12.3 nM | 7.47 | –
FT3469 [8], 37 nM | 7.85 | –
FT3469 [8], 111.1 nM | 6.13 | –
FT3469 [8], 333.3 nM | 7.43 | –
FT3469 [8], 1000 nM | 6.91 | –
FT3469 [8], 3000 nM | 7.23 | –

CCCCCCNC(=O)n1cc(F)c(=O)[nH]c1=O [Carmofur]
Details | phenotypic distance | surviving fraction
E13 [7], 4.1 nM | – | 0.99
E13 [7], 12.3 nM | – | 1.04
E13 [7], 37 nM | – | 0.909
E13 [7], 111.1 nM | – | 0.986
E13 [7], 333.3 nM | – | 0.963
E13 [7], 1000 nM | – | 1.05
E13 [7], 3000 nM | – | 0.877
E13 [14], 4.1 nM | 0.618 | –
E13 [14], 12.3 nM | 0.582 | –
E13 [14], 37 nM | 0.585 | –
E13 [14], 111.1 nM | 0.446 | –
E13 [14], 333.3 nM | 0.744 | –
E13 [14], 1000 nM | 0.529 | –
E13 [14], 3000 nM | 0.786 | –
E21 [6], 4.1 nM | – | 0.952
E21 [6], 12.3 nM | – | 0.91
E21 [6], 37 nM | – | 0.9
E21 [6], 111.1 nM | – | 0.957
E21 [6], 333.3 nM | – | 0.927
E21 [6], 1000 nM | – | 0.955
E21 [6], 3000 nM | – | 0.877
E21 [13], 4.1 nM | 0.484 | –
E21 [13], 12.3 nM | 0.616 | –
E21 [13], 37 nM | 0.756 | –
E21 [13], 111.1 nM | 0.906 | –
E21 [13], 333.3 nM | 0.649 | –
E21 [13], 1000 nM | 0.744 | –
E21 [13], 3000 nM | 1.09 | –
E28 [5], 4.1 nM | – | 1.02
E28 [5], 12.3 nM | – | 1.19
E28 [5], 37 nM | – | 0.916
E28 [5], 111.1 nM | – | 0.949
E28 [5], 333.3 nM | – | 1.1
E28 [5], 1000 nM | – | 1.26
E28 [5], 3000 nM | – | 0.731
E28 [12], 4.1 nM | 0.928 | –
E28 [12], 12.3 nM | 1.13 | –
E28 [12], 37 nM | 1.26 | –
E28 [12], 111.1 nM | 0.901 | –
E28 [12], 333.3 nM | 0.775 | –
E28 [12], 1000 nM | 1.21 | –
E28 [12], 3000 nM | 1.55 | –
E31 [3], 4.1 nM | – | 0.889
E31 [3], 12.3 nM | – | 0.903
E31 [3], 37 nM | – | 0.826
E31 [3], 111.1 nM | – | 0.961
E31 [3], 333.3 nM | – | 0.894
E31 [3], 1000 nM | – | 1.07
E31 [3], 3000 nM | – | 0.875
E31 [10], 4.1 nM | 0.818 | –
E31 [10], 12.3 nM | 0.955 | –
E31 [10], 37 nM | 1.02 | –
E31 [10], 111.1 nM | 0.782 | –
E31 [10], 333.3 nM | 0.838 | –
E31 [10], 1000 nM | 0.811 | –
E31 [10], 3000 nM | 0.874 | –
E34 [4], 4.1 nM | – | 0.974
E34 [4], 12.3 nM | – | 0.829
E34 [4], 37 nM | – | 0.841
E34 [4], 111.1 nM | – | 0.884
E34 [4], 333.3 nM | – | 0.928
E34 [4], 1000 nM | – | 1
E34 [4], 3000 nM | – | 0.889
E34 [11], 4.1 nM | 3.48 | –
E34 [11], 12.3 nM | 1.19 | –
E34 [11], 37 nM | 0.943 | –
E34 [11], 111.1 nM | 1.13 | –
E34 [11], 333.3 nM | 0.621 | –
E34 [11], 1000 nM | 0.627 | –
E34 [11], 3000 nM | 0.693 | –
E57 [2], 4.1 nM | – | 0.882
E57 [2], 12.3 nM | – | 0.903
E57 [2], 37 nM | – | 0.919
E57 [2], 111.1 nM | – | 0.922
E57 [2], 333.3 nM | – | 1.02
E57 [2], 1000 nM | – | 0.954
E57 [2], 3000 nM | – | 0.85
E57 [9], 4.1 nM | 0.989 | –
E57 [9], 12.3 nM | 0.918 | –
E57 [9], 37 nM | 0.681 | –
E57 [9], 111.1 nM | 0.66 | –
E57 [9], 333.3 nM | 0.538 | –
E57 [9], 1000 nM | 0.74 | –
E57 [9], 3000 nM | 1.04 | –
FT3469 [1], 4.1 nM | – | 0.763
FT3469 [1], 12.3 nM | – | 0.995
FT3469 [1], 37 nM | – | 0.811
FT3469 [1], 111.1 nM | – | 0.832
FT3469 [1], 333.3 nM | – | 0.955
FT3469 [1], 1000 nM | – | 0.915
FT3469 [1], 3000 nM | – | 0.649
FT3469 [8], 4.1 nM | 0.889 | –
FT3469 [8], 12.3 nM | 2.05 | –
FT3469 [8], 37 nM | 1.22 | –
FT3469 [8], 111.1 nM | 3.24 | –
FT3469 [8], 333.3 nM | 0.832 | –
FT3469 [8], 1000 nM | 0.844 | –
FT3469 [8], 3000 nM | 1.47 | –
